From ChEMBL document CHEMBL1201862, “PubChem BioAssay data set” (2004)
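Briefly, cells in 96-well plates were exposed to five compound concentrations for 48 h, and endpoints were estimated by linear interpolation. Here, GI50 denotes the concentration required for 50% inhibition of growth.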 Activity calls are given as the source filed them. Rule as the data show it: active = GI50 up to about 1.1 µM and inactive = higher.

Tests used:
Assay in all cases: NCI tumour cell line growth inhibition, 48 h
A549 = tested on: A549
BT-549 = tested on: BT-549
CAKI-1 = tested on: CAKI-1
DU-145 = tested on: DU-145
HCC 2998 = tested on: HCC 2998
HCT-116 = tested on: HCT-116
HCT-15 = tested on: HCT-15
HOP-92 = tested on: HOP-92
HT-29 = tested on: HT-29
K562 = tested on: K562
MCF7 = tested on: MCF7
NCI-H226 = tested on: NCI-H226
NCI-H23 = tested on: NCI-H23
NCI-H460 = tested on: NCI-H460
NCI-H522 = tested on: NCI-H522
OVCAR-5 = tested on: OVCAR-5
RXF 393 = tested on: RXF 393
SF-295 = tested on: SF-295
SF-539 = tested on: SF-539
SK-MEL-2 = tested on: SK-MEL-2

| Structure (SMILES) | GI50 (A549) | GI50 (BT-549) | GI50 (CAKI-1) | GI50 (DU-145) | GI50 (HCC 2998) | GI50 (HCT-116) | GI50 (HCT-15) | GI50 (HOP-92) | GI50 (HT-29) | GI50 (K562) | GI50 (MCF7) | GI50 (NCI-H226) | GI50 (NCI-H23) | GI50 (NCI-H460) | GI50 (NCI-H522) | GI50 (OVCAR-5) | GI50 (RXF 393) | GI50 (SF-295) | GI50 (SF-539) | GI50 (SK-MEL-2) |
| --- | --- | --- | --- | --- | --- | --- | --- | --- | --- | --- | --- | --- | --- | --- | --- | --- | --- | --- | --- | --- |
| CCOC(=O)c1cc2c([N+](=O)[O-])c(NC(C)=O)ccc2s1 | 50.2 µM (inactive) | 72.1 µM (inactive) | 41.6 µM (inactive) | 49 µM (inactive) | > 100 µM (inactive) | 87.9 µM (inactive) | 86.9 µM | 44.8 µM (inactive) | 89.7 µM (inactive) | 53.6 µM (inactive) | 63 µM (inactive) | 13.3 µM (inactive) | 71.9 µM (inactive) | > 100 µM (inactive) | 34.2 µM (inactive) | > 100 µM (inactive) | 20.2 µM (inactive) | 69.3 µM (inactive) | > 100 µM (inactive) | > 100 µM (inactive) |
| C=CCN1C(=O)/C(=C/c2ccc(OC)cc2)NC1=S | 34.8 µM (inactive) | 50.2 µM (inactive) | > 100 µM (inactive) | > 100 µM (inactive) | > 100 µM (inactive) | 48 µM (inactive) | > 100 µM | 14.5 µM (inactive) | 57.9 µM (inactive) | 38.5 µM (inactive) | 40.9 µM (inactive) | 37.9 µM (inactive) | 58.3 µM (inactive) | > 100 µM (inactive) | 41.6 µM (inactive) | > 100 µM (inactive) | 37.2 µM (inactive) | 54.2 µM (inactive) | > 100 µM (inactive) | > 100 µM (inactive) |
| Oc1ccc(/C=N/CC2CCCN3CCCCC23)cc1 (stereo not given) | 27.3 µM (inactive) | 21.3 µM (inactive) | 17.8 µM (inactive) | 16 µM (inactive) | 20 µM (inactive) | 16.7 µM (inactive) | 24.4 µM | 24.2 µM (inactive) | 16.6 µM (inactive) | 43.3 µM (inactive) | 18.3 µM (inactive) | 21.6 µM (inactive) | 24.9 µM (inactive) | 25.1 µM (inactive) | 17.9 µM (inactive) | 31.3 µM (inactive) | 20 µM (inactive) | 26.1 µM (inactive) | 62.1 µM (inactive) | 19.5 µM (inactive) |
| CC(C)(CO)CNc1nc(N)nc(Cl)c1/C=N/O | 16.9 µM (inactive) | 23.6 µM (inactive) | 23.8 µM (inactive) | 31.4 µM (inactive) | 71.1 µM (inactive) | 10.2 µM (inactive) | 61.7 µM | 19.7 µM (inactive) | 42.1 µM (inactive) | 13.9 µM (inactive) | 23.8 µM (inactive) | 22.6 µM (inactive) | 3.45 µM (inactive) | 30 µM (inactive) | 25.8 µM (inactive) | 41.2 µM (inactive) | 22.2 µM (inactive) | 14.1 µM (inactive) | 30.6 µM (inactive) | 39.7 µM (inactive) |
| COc1cc2c(c(OC)c1OC)-c1ccc(SC)c(=O)cc1C(NC=O)CC2 (stereo not given) | < 0.01 µM (active) | 0.239 µM (active) | 0.0183 µM (active) | < 0.01 µM (active) | < 0.01 µM (active) | < 0.01 µM (active) | < 0.01 µM | < 0.01 µM (active) | < 0.01 µM (active) | < 0.01 µM (active) | < 0.0107 µM (active) | 0.0465 µM (active) | < 0.01 µM (active) | < 0.01 µM (active) | < 0.01 µM (active) | 0.164 µM (active) | 0.0463 µM (active) | < 0.01 µM (active) | < 0.01 µM (active) | < 0.01 µM (active) |
| Cc1ccccc1NC(=O)C(=O)CC(=O)c1sc(Nc2ccccc2[N+](=O)[O-])nc1C | 34.8 µM (inactive) | 30.7 µM (inactive) | 28.4 µM (inactive) | 50 µM (inactive) | 24.4 µM (inactive) | 29.7 µM (inactive) | 52.4 µM | 29.3 µM (inactive) | 26.7 µM (inactive) | 49.2 µM (inactive) | 23.9 µM (inactive) | 34.8 µM (inactive) | 36.8 µM (inactive) | 27.4 µM (inactive) | 27.7 µM (inactive) | 90.2 µM (inactive) | 26.4 µM (inactive) | 22.5 µM (inactive) | 29.9 µM (inactive) | 56.6 µM (inactive) |
| O=C1SC(c2ccc(Cl)cc2)(c2ccc(Cl)cc2)c2ccccc21 | > 100 µM (inactive) | > 100 µM (inactive) | > 100 µM (inactive) | 89.1 µM (inactive) | 38.3 µM (inactive) | 13.3 µM (inactive) | 34.8 µM | 81.5 µM (inactive) | 38.5 µM (inactive) | 44.5 µM (inactive) | 48.8 µM (inactive) | 39.5 µM (inactive) | 59.4 µM (inactive) | 63.1 µM (inactive) | 70 µM (inactive) | > 100 µM (inactive) | 39.4 µM (inactive) | 97.5 µM (inactive) | > 100 µM (inactive) | 22.6 µM (inactive) |
| C=C(C)C(=O)O[C@H]1C[C@@]23O[C@@H]2CCC(=C[C@H]2OC(=O)C(=C)[C@H]12)COC3O (stereo not given in full) | > 100 µM (inactive) | 37.1 µM (inactive) | > 100 µM (inactive) | > 100 µM (inactive) | 69.3 µM (inactive) | 18.9 µM (inactive) | 19.5 µM | 21.9 µM (inactive) | 57.5 µM (inactive) | 20.2 µM (inactive) | 30.6 µM (inactive) | > 100 µM (inactive) | > 100 µM (inactive) | > 100 µM (inactive) | 14.4 µM (inactive) | > 100 µM (inactive) | 25.1 µM (inactive) | > 100 µM (inactive) | > 100 µM (inactive) | 70.3 µM (inactive) |
| CO[C@@]12[C@H](COC(N)=O)C3=C(C(=O)C(C)=C(N)C3=O)N1C[C@H]1[C@@H]2N1C (stereo not given in full) [PORFIROMYCIN] | 0.489 µM (active) | 12.2 µM (inactive) | 0.948 µM (active) | 0.282 µM (active) | 1.95 µM (inactive) | 2.22 µM (inactive) | 2.57 µM | 5.43 µM (inactive) | 1.42 µM (inactive) | 7.5 µM (inactive) | 0.714 µM (active) | 8.69 µM (inactive) | 0.506 µM (active) | 0.128 µM (active) | 4.59 µM (inactive) | 10.2 µM (inactive) | 6.31 µM (inactive) | 0.398 µM (active) | 3.56 µM (inactive) | 13.5 µM (inactive) |
| CN(C)CCNC(=O)c1ccc(NCCCN(C)CCCNc2ccc(C(=O)NCCN(C)C)c3nc4ccccc4c(O)c23)c2c(O)c3ccccc3nc12 | < 0.01 µM (active) | 0.254 µM (active) | 0.501 µM (active) | < 0.0114 µM (active) | < 0.01 µM (active) | < 0.01 µM (active) | 0.486 µM | 0.234 µM (active) | < 0.01 µM (active) | 0.0394 µM (active) | < 0.01 µM (active) | < 0.0317 µM (active) | < 0.0122 µM (active) | < 0.01 µM (active) | < 0.01 µM (active) | 0.0422 µM (active) | 0.146 µM (active) | 0.0442 µM (active) | 0.274 µM (active) | < 0.0211 µM (active) |
| CC(Oc1ccccc1Cl)C(=O)NN1C(=O)CSC1c1ccc(Cl)cc1 (stereo not given) | 18.5 µM (inactive) | 21.3 µM (inactive) | 23.6 µM (inactive) | 18.2 µM (inactive) | 18.4 µM (inactive) | 14.5 µM (inactive) | 19.5 µM | 20 µM (inactive) | 19.8 µM (inactive) | 6.73 µM (inactive) | 18.1 µM (inactive) | 18.2 µM (inactive) | 19.3 µM (inactive) | 25.4 µM (inactive) | 16 µM (inactive) | 22.8 µM (inactive) | 17.3 µM (inactive) | 18.5 µM (inactive) | 24.8 µM (inactive) | 21.9 µM (inactive) |
| CSCCC(N)P(C)(=O)O (stereo not given) | > 100 µM (inactive) | > 100 µM (inactive) | > 100 µM (inactive) | > 100 µM (inactive) | > 100 µM (inactive) | > 100 µM (inactive) | > 100 µM | > 100 µM (inactive) | > 100 µM (inactive) | > 100 µM (inactive) | > 100 µM (inactive) | > 100 µM (inactive) | > 100 µM (inactive) | > 100 µM (inactive) | > 100 µM (inactive) | > 100 µM (inactive) | > 100 µM (inactive) | > 100 µM (inactive) | > 100 µM (inactive) | > 100 µM (inactive) |
| COCOC1/C=C/CCCC#C[C@H](C)C(=O)CC1 (stereo not given in full) | 8.07 µM (inactive) | 12.6 µM (inactive) | 11.5 µM (inactive) | 14.6 µM (inactive) | 14.6 µM (inactive) | 2.33 µM (inactive) | 8.57 µM | 4.4 µM (inactive) | 3.69 µM (inactive) | 2.7 µM (inactive) | 5.55 µM (inactive) | 19.6 µM (inactive) | 5.97 µM (inactive) | 8.73 µM (inactive) | 5.7 µM (inactive) | 7.38 µM (inactive) | 8.41 µM (inactive) | 16.3 µM (inactive) | 16.2 µM (inactive) | 15 µM (inactive) |
